{
  "source": "patent US11441144B2",
  "about": "“Methods of polynucleotide preparation using multivalent cation salt compositions” (Geron Corporation, priority 2015, dated 2022)",
  "experiment": "Solubility of precipitate in 0.1M NaOH",
  "assay_type": "physicochemical",
  "conditions": "salts precipitated in a large excess of salt reagent",
  "from_the_text": "The crystallization or precipitation of divalent or trivalent forms of Imetelstat was investigated using a large excess of inorganic salts of interest (900 equivalents, weight base). […] Three types of Imetelstat solution: crude Imetelstat solution (ammonium salt), purified Imetelstat (triethylammonium (TEA) salt form), and Imetelstat sodium (Na salt form), were mixed with each salt solution.\nThe solubilities of the precipitates isolated under the conditions of large excess of salt regent were initially investigated using the following solvents: water, acetonitrile, MeOH, EtOH, IPA (isopropyl alcohol), 0.1M NaOH, 0.1M HCl, 1M NaCl, and NMP.\n(see Table 2). Solubility studies of Imetelstat precipitate obtained from a large excess of magnesium salt reagent were conducted in 1M NaCl solutions at different concentrations (2 mg/mL to 6 mg/mL) and under different pH conditions (pH 8, 9, 10, 11, 12) and analyzed by HPLC (see chromatograms of FIG. 1).",
  "data": [
    {"substance": "BaCl2", "values": [
      {"measurement": "Solubility in a 0.1M NaOH and 1M NaCl solution", "result": "soluble"}
    ]}
  ]
}
